# Tests used:
# [1] = target: T1, 5-HT4 receptor (Cavia porcellus, UniProt O70528); test: guinea pig distal colon longitudinal muscle-myenteric plexus, 5-HT-evoked contraction; format: cell-based
# T1 construct: Longitudinal muscle-myenteric plexus preparations, approximately 3 cm long, are obtained from the distal colon region; from tissue; host or cells: guinea-pig distal colon longitudinal muscle-myenteric plexus
# Experimental: Male guinea-pigs, weighing 250-400 g are used.
# (§1) In some experiments, this tissue was dosed alternately with an approximately equi-effective concentration of the nicotine receptor stimulant, dimethylphenylpiperazinium (DMPP).
# [2] = system: DMPP-evoked contractions (nicotinic receptor agonist); test: guinea pig colon, DMPP-evoked contractions; format: cell-based; details: 10^−5M
# Experimental: as §1
# [3] = target: T2, 5-HT4 receptor (Rattus norvegicus, UniProt Q62758); test: rat oesophageal tunica muscularis mucosae, relaxation to 5-HT; format: cell-based
# T2 construct: The inner smooth muscle tube of the muscularis mucosae is isolated and mounted for isometric tension recording; from tissue; host or cells: rat oesophageal tunica muscularis mucosae
# Text: Rat oesophageal tunica muscularis mucosae is set up according to Baxter et. al. Naunyn-Schmiedeberg's Arch.
# [4] = target: T3, 5-HT2B receptor (Rattus norvegicus, UniProt P30994); test: functional studies on the rat stomach fundus; format: cell-based
# T3 construct: from tissue; host or cells: rat stomach fundus
# T3 sequence (P30994 whole entry): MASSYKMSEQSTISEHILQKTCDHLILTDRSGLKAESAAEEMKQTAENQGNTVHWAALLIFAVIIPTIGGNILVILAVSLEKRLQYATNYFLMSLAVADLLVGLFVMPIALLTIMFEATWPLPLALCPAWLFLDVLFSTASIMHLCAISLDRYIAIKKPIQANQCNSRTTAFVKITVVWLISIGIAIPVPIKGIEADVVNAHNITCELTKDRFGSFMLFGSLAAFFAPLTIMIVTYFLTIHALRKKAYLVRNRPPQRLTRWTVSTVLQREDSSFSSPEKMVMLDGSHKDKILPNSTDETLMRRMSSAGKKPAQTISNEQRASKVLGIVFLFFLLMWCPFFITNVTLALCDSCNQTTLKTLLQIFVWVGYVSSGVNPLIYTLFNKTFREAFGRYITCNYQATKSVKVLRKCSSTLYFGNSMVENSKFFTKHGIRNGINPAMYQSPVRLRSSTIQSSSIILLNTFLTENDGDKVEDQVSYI
# [5] = target: 5-HT1A (Homo sapiens, UniProt P08908); test: receptor binding studies, 5-HT1A; details: read-out: pKd 5-HT1A (converted)
# Chain of 5-HT1A (P08908 whole entry, species assumed): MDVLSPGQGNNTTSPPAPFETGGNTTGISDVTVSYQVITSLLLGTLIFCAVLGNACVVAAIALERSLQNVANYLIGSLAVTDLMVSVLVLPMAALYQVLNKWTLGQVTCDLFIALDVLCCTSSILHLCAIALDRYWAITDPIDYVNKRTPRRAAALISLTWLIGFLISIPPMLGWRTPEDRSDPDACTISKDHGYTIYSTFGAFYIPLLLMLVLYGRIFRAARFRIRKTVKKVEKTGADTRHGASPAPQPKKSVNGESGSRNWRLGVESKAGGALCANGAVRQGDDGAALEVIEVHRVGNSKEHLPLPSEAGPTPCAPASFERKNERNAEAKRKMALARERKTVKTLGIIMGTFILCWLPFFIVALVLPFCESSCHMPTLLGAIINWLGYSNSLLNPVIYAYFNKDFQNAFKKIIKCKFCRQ
# [6] = target: 5-HT1D (Homo sapiens, UniProt P28221); test: receptor binding studies, 5-HT1D; details: read-out: pKd 5-HT1D (converted)
# Chain of 5-HT1D (P28221 whole entry, species assumed): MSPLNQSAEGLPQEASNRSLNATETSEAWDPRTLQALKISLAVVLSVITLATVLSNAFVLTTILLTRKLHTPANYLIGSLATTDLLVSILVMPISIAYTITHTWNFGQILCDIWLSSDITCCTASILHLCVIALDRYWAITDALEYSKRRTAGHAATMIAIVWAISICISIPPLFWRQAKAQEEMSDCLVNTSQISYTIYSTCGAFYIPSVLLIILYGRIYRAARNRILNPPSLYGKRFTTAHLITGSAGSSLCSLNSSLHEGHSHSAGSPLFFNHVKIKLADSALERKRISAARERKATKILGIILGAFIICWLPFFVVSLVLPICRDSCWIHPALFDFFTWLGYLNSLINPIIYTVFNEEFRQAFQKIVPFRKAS
# [7] = target: 5-HT1E (Homo sapiens, UniProt P28566); test: receptor binding studies, 5-HT1E; details: read-out: pKd 5-HT1E (converted)
# Chain of 5-HT1E (P28566 whole entry, species assumed): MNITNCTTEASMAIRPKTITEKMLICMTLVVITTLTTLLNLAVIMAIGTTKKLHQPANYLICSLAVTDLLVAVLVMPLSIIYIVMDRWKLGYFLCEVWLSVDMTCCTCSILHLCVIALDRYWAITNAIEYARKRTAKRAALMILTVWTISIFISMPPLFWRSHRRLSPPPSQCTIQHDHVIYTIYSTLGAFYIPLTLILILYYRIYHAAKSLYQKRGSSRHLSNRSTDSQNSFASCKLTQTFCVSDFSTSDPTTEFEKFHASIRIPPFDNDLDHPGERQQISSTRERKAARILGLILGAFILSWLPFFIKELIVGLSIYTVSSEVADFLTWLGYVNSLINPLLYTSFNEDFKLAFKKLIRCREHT
# [8] = target: 5-HT2A (Homo sapiens, UniProt P28223); test: receptor binding studies, 5-HT2A; details: read-out: pKd 5-HT2A (converted)
# Chain of 5-HT2A (P28223 whole entry, species assumed): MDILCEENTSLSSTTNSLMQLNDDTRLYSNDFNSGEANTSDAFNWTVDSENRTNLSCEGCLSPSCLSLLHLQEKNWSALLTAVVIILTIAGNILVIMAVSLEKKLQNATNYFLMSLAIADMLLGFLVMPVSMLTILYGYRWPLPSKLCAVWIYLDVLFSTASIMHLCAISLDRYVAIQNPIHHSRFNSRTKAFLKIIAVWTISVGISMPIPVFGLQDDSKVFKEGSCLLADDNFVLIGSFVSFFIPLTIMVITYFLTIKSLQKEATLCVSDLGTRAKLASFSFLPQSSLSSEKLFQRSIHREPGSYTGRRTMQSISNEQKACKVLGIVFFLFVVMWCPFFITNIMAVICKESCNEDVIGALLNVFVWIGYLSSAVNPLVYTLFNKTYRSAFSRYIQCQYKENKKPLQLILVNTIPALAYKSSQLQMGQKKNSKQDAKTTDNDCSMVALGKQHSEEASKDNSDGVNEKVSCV
# [9] = target: 5-HT2C (Homo sapiens, UniProt P28335); test: receptor binding studies, 5-HT2C; details: read-out: pKd 5-HT2C (converted)
# Chain of 5-HT2C (P28335 33-458, species assumed): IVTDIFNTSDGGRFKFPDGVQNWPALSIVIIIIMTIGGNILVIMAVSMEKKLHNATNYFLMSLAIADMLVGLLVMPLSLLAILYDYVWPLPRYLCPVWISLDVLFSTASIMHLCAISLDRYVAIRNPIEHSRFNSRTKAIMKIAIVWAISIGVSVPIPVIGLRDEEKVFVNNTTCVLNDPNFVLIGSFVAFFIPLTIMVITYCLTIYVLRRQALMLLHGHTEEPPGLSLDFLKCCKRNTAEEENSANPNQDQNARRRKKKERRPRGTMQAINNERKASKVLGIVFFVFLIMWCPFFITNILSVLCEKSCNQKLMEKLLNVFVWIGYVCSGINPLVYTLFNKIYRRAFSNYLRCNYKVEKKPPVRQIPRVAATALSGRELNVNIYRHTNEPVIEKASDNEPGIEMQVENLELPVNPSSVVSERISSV
# [10] = target: 5-HT3 (Homo sapiens, UniProt P46098); test: receptor binding studies, 5-HT3; details: read-out: pKd 5-HT3 (converted)
# [11] = target: Alpha1; test: receptor binding studies, Alpha1
# [12] = target: D2 (Homo sapiens, UniProt P14416); test: receptor binding studies, D2; details: read-out: pKd D2 (converted)
# Chain of D2 (P14416 whole entry): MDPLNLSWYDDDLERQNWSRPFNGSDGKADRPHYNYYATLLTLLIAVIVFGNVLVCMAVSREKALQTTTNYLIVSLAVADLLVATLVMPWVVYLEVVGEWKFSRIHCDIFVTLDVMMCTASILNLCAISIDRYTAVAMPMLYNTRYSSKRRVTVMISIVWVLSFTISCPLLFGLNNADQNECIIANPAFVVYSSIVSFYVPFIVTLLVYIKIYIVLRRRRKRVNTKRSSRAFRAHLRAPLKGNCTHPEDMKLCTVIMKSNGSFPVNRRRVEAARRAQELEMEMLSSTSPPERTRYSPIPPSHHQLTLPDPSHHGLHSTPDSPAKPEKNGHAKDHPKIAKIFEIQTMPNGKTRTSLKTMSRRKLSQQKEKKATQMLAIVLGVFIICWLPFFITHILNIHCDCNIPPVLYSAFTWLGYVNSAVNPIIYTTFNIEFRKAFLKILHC
# [13] = target: D3 (Homo sapiens, UniProt P35462); test: receptor binding studies, D3; details: read-out: pKd D3 (converted)
# Chain of D3 (P35462 whole entry): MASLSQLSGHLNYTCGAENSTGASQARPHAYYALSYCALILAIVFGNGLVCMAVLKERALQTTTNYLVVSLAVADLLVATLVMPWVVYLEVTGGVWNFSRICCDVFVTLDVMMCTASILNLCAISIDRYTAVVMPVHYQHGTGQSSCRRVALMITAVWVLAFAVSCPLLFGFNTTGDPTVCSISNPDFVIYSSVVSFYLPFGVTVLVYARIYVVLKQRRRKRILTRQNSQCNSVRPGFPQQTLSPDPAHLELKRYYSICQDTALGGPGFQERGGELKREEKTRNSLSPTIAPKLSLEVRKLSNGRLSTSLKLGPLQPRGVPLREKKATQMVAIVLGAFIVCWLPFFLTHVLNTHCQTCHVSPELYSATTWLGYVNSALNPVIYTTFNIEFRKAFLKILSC
# [14] = target: GABA; test: receptor binding studies, GABA
# [15] = target: BDZ; test: receptor binding studies, BDZ
# [16] = target: H1 (Homo sapiens, UniProt P35367); test: receptor binding studies, H1; details: read-out: pKd H1 (converted)
# [17] = target: Opiate kappa (Homo sapiens, UniProt P41145); test: receptor binding studies, Opiate kappa; details: read-out: pKi Opiate kappa (converted)
# Chain of Opiate kappa (P41145 whole entry): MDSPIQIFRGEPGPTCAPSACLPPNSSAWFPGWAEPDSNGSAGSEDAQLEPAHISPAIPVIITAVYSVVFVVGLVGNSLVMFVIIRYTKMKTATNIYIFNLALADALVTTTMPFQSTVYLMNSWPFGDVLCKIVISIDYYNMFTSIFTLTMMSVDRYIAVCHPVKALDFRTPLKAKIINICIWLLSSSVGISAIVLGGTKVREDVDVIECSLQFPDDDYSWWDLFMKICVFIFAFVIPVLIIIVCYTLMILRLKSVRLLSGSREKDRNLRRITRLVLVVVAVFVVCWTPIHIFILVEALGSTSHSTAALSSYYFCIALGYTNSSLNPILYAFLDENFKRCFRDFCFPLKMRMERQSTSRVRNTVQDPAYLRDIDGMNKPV
# [18] = target: Opiate mu (Homo sapiens, UniProt P35372); test: receptor binding studies, Opiate mu; details: read-out: pKi Opiate mu (converted)
# Chain of Opiate mu (P35372 whole entry): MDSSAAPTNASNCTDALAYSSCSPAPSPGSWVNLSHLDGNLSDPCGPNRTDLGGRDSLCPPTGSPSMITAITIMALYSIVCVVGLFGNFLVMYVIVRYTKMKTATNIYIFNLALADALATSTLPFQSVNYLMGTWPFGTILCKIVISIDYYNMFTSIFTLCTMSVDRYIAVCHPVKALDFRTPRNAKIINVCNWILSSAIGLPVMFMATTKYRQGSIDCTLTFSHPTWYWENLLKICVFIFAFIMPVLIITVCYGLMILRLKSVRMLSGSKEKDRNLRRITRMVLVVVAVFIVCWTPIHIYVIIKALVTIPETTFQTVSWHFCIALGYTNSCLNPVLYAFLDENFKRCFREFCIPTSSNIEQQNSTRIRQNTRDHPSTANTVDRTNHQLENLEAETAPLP
# [19] = target: Opiate delta (Homo sapiens, UniProt P41143); test: receptor binding studies, Opiate delta; details: read-out: pKi Opiate delta (converted)
# Chain of Opiate delta (P41143 whole entry): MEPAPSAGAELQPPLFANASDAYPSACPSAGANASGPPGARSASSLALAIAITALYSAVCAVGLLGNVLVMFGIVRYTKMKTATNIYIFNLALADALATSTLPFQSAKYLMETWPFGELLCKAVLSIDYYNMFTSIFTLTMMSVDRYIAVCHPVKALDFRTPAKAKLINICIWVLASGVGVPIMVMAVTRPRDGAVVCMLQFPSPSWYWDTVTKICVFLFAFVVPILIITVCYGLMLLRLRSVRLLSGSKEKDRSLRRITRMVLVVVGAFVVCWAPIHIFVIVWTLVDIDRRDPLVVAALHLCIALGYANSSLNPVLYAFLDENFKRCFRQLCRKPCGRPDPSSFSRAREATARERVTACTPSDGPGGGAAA
# [20] = system: 5-HT4 receptor; test: 5-HT-induced motility in dog Heidenhain gastric pouch; format: in vivo
# Experimental: Compounds are tested for inhibition in the in vivo method described in “Stimulation of canine motility by BRL 24924, a new gastric prokinetic agent”, Bermudez et al, J. Gastrointestinal Motility, 1990, 2(4), 281-286.
# Dogs with previously prepared Heidenhain gastric pouches are fasted overnight.
# [21] = system: 5-HT4 receptors; test: antagonism of 5-HT-evoked tachycardia in anaesthetised piglets; format: in vivo, piglet
# Text: All experiments were in 2-5 day old piglets in which the vagi were sectioned.
# [22] = system: social interaction in rats; test: social interaction test in rats (anxiolytic activity); format: in vivo, rat
# Experimental: Rats (male, Sprague Dawleys, Charles River, 250-300 g) are housed in groups of eight in a holding room for 5 days. They are then housed singly in a room adjacent to the experimental room for 4 days prior to the experimental day. On the experimental day rats are administered vehicle, test compound or a benzodiazepine anxiolytic, chlordiazepoxide, p.o. in pairs (n=8-16), at 15 minute intervals beginning at 10.00 a.m. […] The box is made of white perspex 54 cm×37 cm×26 cm with a transparent perspex front side and no lid. The floor is divided up into 24 squares and the box is brightly lit (115 lux). Active social interactive behaviours (grooming, sniffing, climbing over or under, following, biting, mounting and boxing) are scored blind for the next 15 min by remote video monitoring to give total interaction scores. The number of squares crossed by each rat is also scored and summed. After the end of each test the box is carefully wiped.
# T1 sequence (O70528 whole entry): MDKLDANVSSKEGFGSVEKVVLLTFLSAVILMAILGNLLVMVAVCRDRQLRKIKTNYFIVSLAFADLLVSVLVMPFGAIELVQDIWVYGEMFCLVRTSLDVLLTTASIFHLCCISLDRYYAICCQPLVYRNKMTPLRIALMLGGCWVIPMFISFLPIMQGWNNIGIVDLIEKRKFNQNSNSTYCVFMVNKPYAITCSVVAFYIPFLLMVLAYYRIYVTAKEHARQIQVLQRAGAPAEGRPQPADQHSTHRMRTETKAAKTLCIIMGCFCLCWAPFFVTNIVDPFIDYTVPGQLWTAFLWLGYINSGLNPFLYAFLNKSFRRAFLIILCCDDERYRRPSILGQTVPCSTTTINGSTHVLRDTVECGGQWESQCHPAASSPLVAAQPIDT
smiles,measurement,setting,value
"CCCCN1CCC(CNC(=O)c2c3n(c4ccccc24)CCCO3)CC1 [SB-207266-A, N-[(1-^nbutyl-4-piperidinyl)methyl]-3,4-dihydro-2H-[1,3]oxazino[3,2-a]indole-10-carboxamide]",contraction evoked by the 5-HT4 receptor partial agonist BIMU 1,[1],reduced the maximum response to BIMU 1
same,maximum response to 5-HT,[1]; 3×10^−8 M and above,reduced in a concentration-dependent manner
same,time for recovery of responses to 5-HT upon washout,[1]; highest concentrations (which reduce maximum 5-HT-evoked contractions),≤ 90 min
same,DMPP-evoked contractions,[2],unaffected
same,type of antagonism of 5-HT response,[3],non-surmountable antagonist
same,affinity for the 5-HT2B receptor,[4],7.47
same,Kd,[5],> 10 µM
same,Kd,[6],> 10 µM
same,Kd,[7],> 10 µM
same,Kd,[8],1.29 µM
same,Kd,[9],2.69 µM
same,Kd,[10],1.15 µM
same,pKd Alpha1,[11],<5.52
same,Kd,[12],2.34 µM
same,Kd,[13],2.95 µM
same,pKd GABA,[14],>5.00
same,pKd BDZ,[15],>5.00
same,Kd,[16],3.98 µM
same,Ki,[17],< 1 µM
same,Ki,[18],< 1 µM
same,Ki,[19],< 1 µM
same,effect on basal motility,[20]; any dose,no effect
same,"ID50, antagonism of the contractile response to 5-HT",[20]; iv,1.3 (Confidence Limits 0.1-14.0) ug.kg^−1
same,"ID50, antagonism of the contractile response to 5-HT",[20]; po,9.6 (CL 0.7-128) ug.kg^−1
same,antagonism of 5-HT-evoked tachycardia,"[21]; 0.1, 0.3 or 1.0 ugkg^−1 intravenously, n=2 each",antagonised the 5-HT-evoked tachycardia in a dose-dependent manner
same,recovery from antagonism,"[21]; 0.3, 1.0 ugkg^−1 i.v., over the duration of the experiment",incomplete
same,total interaction scores,"[22]; 0.01, 1, 10 mg.kg^−1, 1 h after administration",Significantly increased
same,locomotion during the test,"[22]; rat, in vivo",not accompanied by any alteration in locomotion

# — patent publication US20050032866A1, “The use of 5ht4 receptor antagonists in the prophylaxis or treatment of certain cardiovascular conditions” (priority 2000, published 2005)
